Results taken from patent US20030105138A1, “Method of treatment for decreasing mortality resulting from congestive heart failure” (Boehringer Mannheim Pharmaceuticals Corporation- SmithKline …, priority 1995, published 2003).

Legend:
patients with CHF [1] = details: treatment of CHF; cited from earlier work
patients with CHF [2] = assay: US Carvedilol Heart Failure Trials: mortality studies in CHF patients (multicenter, double-blind, placebo-controlled, intention-to-treat); format: in vivo, humans; set-up: All Cause Mortality / Risk Reduction, all-cause mortality / Mortality / Risk Reduction, mortality: concentration or dose not given beside the values; details: for Risk Reduction, mortality / Risk Reduction, all-cause mortality: versus placebo
Source text: To determine if β-adrenergic blockade might inhibit the deleterious effects of the sympathetic nervous system on survival in heart failure (CHF), 1052 patients with CHF were prospectively enrolled into a multicenter trial program, in which patients were randomly assigned (double-blind) to 6-12 months' treatment with placebo (PBO) or carvedilol (CRV),. After a common screening period, patients with class II-IV CHF (see next paragraph for the definitions of the classification of CHF) and an ejection fraction ≦0.35 were assigned to one of four protocols based on performance on a 6-minute walk test. PBO or CRV was added to existing therapy with digoxin, diuretics and an ACE inhibitor. All-cause mortality was monitored by a prospectively constituted Data and Safety Monitoring Board (DSMB). After 25 months of enrollment, the DSMB recommended termination of the program because of a favorable effect of CRV on survival. By intention-to-treat, mortality was 8.2% in the PBO group but only 2.9% in the CRV group (P=0.0001, Cochran-Mantel-Haensel analysis). This represented a reduction in risk of death by CRV of 67% (95% CI: 42% to 81%). The treatment effect was similar in patients with class II and class III-IV symptoms. Mortality was reduced in class II patients from 5.9% to 1.9%, a 68% reduction (95% CI: 20% to 97%) [P=0.015,], and in class III-IV patients from 11.0% to 4.2%, a 67% reduction (95% CI: 30% to 84%), [P=0.004, log-rank]. Importantly, the effect of CRV was similar in ischemic heart disease (risk reduced by 67%, P=0.003) and in non-ischemic dilated cardiomyopathy (risk reduced by 67%, P=0.014). […] The treatment effect is seen across a broad range of severity and etiology of disease.
Patients on background therapy with diuretics, ACE inhibitors and/or digoxin were stratified on the basis of baseline submaximal exercise performance, into one of four trials: study 220, a dose response study in moderate (NYHA II-IV) CHF with exercise testing as a primary endpoint study 221, a dose titration study in moderate (NYHA II-IV) CHF with exercise testing as a primary endpoint study 239, a dose titration study in severe (NYHA III-IV) CHF with quality of life as a primary endpoint study 240, a dose titration study in mild (NYHA II-III) CHF with progression of CHF as a primary endpoint Sixty-four centers in the U.S. participated in the trial program. All sites conducted protocols 239 and 240, while 33 performed protocol 220 and 31 performed protocol 221.
Although each trial had its own individual objectives, the overall program objective defined prospectively was evaluation of all-cause mortality. Based upon a projected enrollment of 1100 patients, the program had 90% power to detect a 50% reduction in mortality (two-sided) between carvedilol and placebo, assuming a mortality rate in the placebo group of 12% over the duration of the trials (α=0.05).
Randomization was preceded by a screening and challenge period common to the four protocols The purpose of the screening period was to qualify patients for study entry, obtain reproducible baseline measurements, and stratify patients into the appropriate trial based on submaximal exercise testing. During the challenge period, patients received low-dose open-label carvedilol (6.25 mg b.i.d.) for two weeks. […] Patients tolerating low-dose carvedilol were then randomized to blinded medication (carvedilol or placebo) with the dose titrated over several weeks in the range of 6.25 to 50 mg b.i.d. (or equivalent level of placebo). The maintenance phase of each study ranged from six to 12 months, after which patients had the option of receiving open-label carvedilol in an extension study.
The analysis presented below corresponds to the data set on which the DSMB made the recommendation to terminate the trials. Included in this intent-to-treat analysis are all patients enrolled in the U.S. trials as of Jan. 20, 1995; 624 receiving carvedilol and 356 placebo.

[3] = Class III-IV CHF, listed as CRV

COCCc1ccc(OCC(O)CNC(C)C)cc1 (stereo not shown) [metoprolol]
Difference in mortality between drug-treated patients and placebo-treated patients (patients with CHF [1]): no difference in mortality

CC(C)NCC(O)COc1ccc(COCCOC(C)C)cc1 (stereo not shown) [bisoprolol]
Difference in mortality between drug-treated patients and placebo-treated patients (patients with CHF [1]): no difference in mortality

COc1ccccc1OCCNCC(O)COc1cccc2[nH]c3ccccc3c12 (stereo not shown) [Carvedilol]
Mortality (patients with CHF [2]; Class II CHF): (1.9%) | Mortality (deaths/patients) (patients with CHF [2]; Class II CHF): 7/361 | Risk Reduction, mortality (patients with CHF [2]; Class II CHF): 68% | Risk Reduction, mortality (patients with CHF [2]; Class II CHF, listed as CRV): 68% | Mortality (patients with CHF [2]; Class II CHF, listed as CRV): 1.9% | Mortality (patients with CHF [2]; Class III-IV CHF): (4.2%) | Mortality (deaths/patients) (patients with CHF [2]; Class III-IV CHF): 11/263 | Risk Reduction, mortality (patients with CHF [2]; Class III-IV CHF): 66% | Risk Reduction, mortality (patients with CHF [2]; [3]): 67% | Mortality (patients with CHF [2]; [3]): 4.2% | Mortality (patients with CHF [2]; Ischemic Etiology): (3.2%) | Mortality (deaths/patients) (patients with CHF [2]; Ischemic Etiology): 10/311 | Risk Reduction, mortality (patients with CHF [2]; Ischemic Etiology): 67% | Risk Reduction, mortality (patients with CHF [2]; Ischemic Etiology, listed as CRV): 67% | Mortality (patients with CHF [2]; Non-Ischemic Etiology): (2.5%) | Mortality (deaths/patients) (patients with CHF [2]; Non-Ischemic Etiology): 8/313 | Risk Reduction, mortality (patients with CHF [2]; Non-Ischemic Etiology): 67% | Risk Reduction, mortality (patients with CHF [2]; Non-Ischemic Etiology, listed as CRV): 67% | All Cause Mortality (patients with CHF [2]; all patients, intent-to-treat): (2.9%) | All Cause Mortality (deaths/patients) (patients with CHF [2]; all patients, intent-to-treat, added to digoxin, diuretics and ACE inhibitor, 6.25 to 50 mg b.i.d.): 18/624 | All Cause Mortality (patients with CHF [2]; all patients, intent-to-treat, listed as CRV): 2.9% | Risk Reduction, all-cause mortality (patients with CHF [2]; all patients): 67% | Risk Reduction, all-cause mortality (patients with CHF [2]; all patients, listed as CRV): 67%
